{"source": "patent US20050227998A1", "about": "“Compositions and methods of decreasing nicotine withdrawal” (priority 2004, published 2005)", "origin": "cited, not measured here", "system": "monkeys"}
{"smiles": "CN1[C@@H]2C[C@@H](OC(=O)[C@H](CO)c3ccccc3)C[C@H]1[C@@H]1O[C@@H]12", "note": "[scopolamine, Scopolamine]", "values": [{"measurement": "smoking patterns", "value": "decreased"}]}
